Values joined by “and” are separate entries in the source; they are usually repeats but may differ in a detail not shown here. Equal entries are not always repeated.
Key:
Format in all cases: cell-based
Propionibacterium acnes [1] = experiment: MIC of selected lysin after single-step purification, Example 8; settings: single-step purified lysin
Protocol: Express PACL 10, 390, 391, 392, 403 and 404 according to the method of Examples 1-4, and perform the following single-step purification: put Escherichia coli BL21 (DE3) containing each recombinant expression plasmid in the self-induction medium incubate at 37° C., 300 rpm for 3 hours, then at 18° C., 300 rpm for 16-18 hours. Cells were collected by centrifugation and lysed by homogenizatoin under high pressure. Clarified lysate from 1 L of E. coli culture medium expressing the protein of interest was loaded onto a 26 mm/200 mm column containing 70 mL of purification resin. The lysin was purified according to the conditions in Table 8-1, and the purity determination of the lyase after single-step purification is shown in FIG. 5. These lysin are used to determine the minimal inhibitory concentration (MIC).
The minimal inhibitory concentration (MIC) determination method is as follows. Propionibacterium acnes is streaked on Fortified Clostridium Agar (Fortified Clostridium Medium RCM with 1.5% agar, RCM was prepared according to the revised recipe, per liter—10 g acid hydrolyzed casein, 10 g beef extract, 3 g yeast extract, 5 g D—glucose, 5 g sodium chloride, 3 g sodium acetate, 0.5 g L-cysteine hydrochloride). Plates were incubated anaerobically at 37° C. for 72 hours. The inoculum for MIC determination was first prepared by resuspending single clones from RCA in 0.9% saline to an OD600 of 0.05, corresponding to 10^7 colony-forming units per milliliter (cfu/mL). The suspension was diluted 20-fold in RCM to an inoculum of 5*10^5 cfu/mL. Two-fold serial dilutions of each lyase were prepared in 0.9% saline and added not to exceed one-tenth of the total culture volume. Cultures were grown anaerobically at 37° C. for 48-72 hours. The MIC is the lowest concentration of lyase at which no growth of P. acnes can be observed with the naked eye.

Propionibacterium acnes [2] = experiment: Minimum inhibitory concentration (MIC) determination, Example 6; settings: Cutibacterium acnes
Protocol: (§1) The minimal inhibitory concentration (MIC) determination method is as follows. First prepare a colony suspension in 0.9% saline to an OD600 of 0.05 to prepare an inoculum, which corresponds to 10^7 colony-forming units per mL (cfu/mL). The suspension was diluted 20 times in agar-free enhanced Clostridium medium (RCM) to an inoculum of 5*10^5 cfu/mL. Prepare 2-fold serial dilutions of PACL10 or vancomycin with 0.9% saline and add no more than one-tenth of the total culture. Cultures were grown anaerobically at 37° C. for 3 days. The MIC is the lowest concentration of PACL10 or vancomycin at which no growth of P. acnes can be observed with the naked eye. The minimum bactericidal concentration (MBC) was determined by subculturing the above cultures on enhanced Clostridium agar (RCA) plates containing 0.1% Tween-80. MBC is the lowest concentration of PACL10 or vancomycin at which no P. acnes colonies are seen on the enhanced Clostridium agar (RCA) plate.

Propionibacterium acnes [3] = experiment: Minimum bactericidal concentration (MBC) determination, Example 6; settings: Cutibacterium acnes
Protocol: as §1

For `CN(C)[C@@H]1C(O)=C(C(N)=O)C(=O)[C@@]2(O)C(O)=C3C(=O)c4c(O)cccc4[C@@](C)(O)[C@H]3C[C@@H]12` [Tetracycline, reference compound], the MIC (Propionibacterium acnes [1]; Cutibacterium acnes, clade IA2, strain 33, read-out: MIC of selected lyases relative to Propionibacterium acnes) was 8 µg/mL, the “MIC of selected lyases relative to Propionibacterium acnes” value (Propionibacterium acnes [1]; clade IA1, strain 1) was 8 µg/mL and the “MIC of selected lyases relative to Propionibacterium acnes” value (Propionibacterium acnes [1]; clade IA1, strain 5) was 8 µg/mL. For the same molecule, the “MIC of selected lyases relative to Propionibacterium acnes” value (Propionibacterium acnes [1]; clade IA1, strain 7) was 8 µg/mL, the “MIC of selected lyases relative to Propionibacterium acnes” value (Propionibacterium acnes [1]; clade IA2, strain 10) was 8 µg/mL and the “MIC of selected lyases relative to Propionibacterium acnes” value (Propionibacterium acnes [1]; clade IA2, strain 17) was 8 µg/mL. The “MIC of selected lyases relative to Propionibacterium acnes” value (Propionibacterium acnes [1]; clade II, strain 34) was 8 µg/mL.

For `CN[C@H](CC(C)C)C(=O)N[C@H]1C(=O)N[C@@H](CC(N)=O)C(=O)N[C@H]2C(=O)N[C@H]3C(=O)N[C@H](C(=O)N[C@H](C(=O)O)c4cc(O)cc(O)c4-c4cc3ccc4O)[C@H](O)c3ccc(c(Cl)c3)Oc3cc2cc(c3O[C@@H]2O[C@H](CO)[C@@H](O)[C@H](O)[C@H]2O[C@H]2C[C@](C)(N)[C@H](O)[C@H](C)O2)Oc2ccc(cc2Cl)[C@H]1O` [Vancomycin, reference compound], the MIC (Propionibacterium acnes [2]; clade IA1, strain 1) was 0.5 µg/mL and 0.337 µM, the MIC (Propionibacterium acnes [2]; clade IA1, strain 5) was 1 µg/mL and 0.673 µM and the MIC (Propionibacterium acnes [2]; clade IA1, strain 7) was 0.5 µg/mL and 0.337 µM. For the same molecule, the MIC (Propionibacterium acnes [2]; clade IA1, strain 15) was 1 µg/mL and 0.673 µM, the MIC (Propionibacterium acnes [2]; clade IA1, strain 27) was 1 µg/mL and 0.673 µM and the MIC (Propionibacterium acnes [2]; clade IA2, strain 10) was 0.5 µg/mL and 0.337 µM. The MIC (Propionibacterium acnes [2]; clade IA2, strain 14) was 0.5 µg/mL and 0.337 µM, the MIC (Propionibacterium acnes [2]; clade IA2, strain 17) was 0.5 µg/mL and 0.337 µM and the MIC (Propionibacterium acnes [2]; clade IA2, strain 31) was 0.5 µg/mL and 0.337 µM. The MIC (Propionibacterium acnes [2]; clade IA2, strain 33A) was 0.5 µg/mL and 0.337 µM, the MIC (Propionibacterium acnes [2]; clade IB, strain 13) was 1 µg/mL and 0.673 µM and the MIC (Propionibacterium acnes [2]; clade II, strain 34A) was 0.5 µg/mL and 0.337 µM. For the same molecule, the MBC (Propionibacterium acnes [3]; clade IA1, strain 1) was 0.5 µg/mL and 0.337 µM, the MBC (Propionibacterium acnes [3]; clade IA1, strain 5) was 1 µg/mL and 0.673 µM and the MBC (Propionibacterium acnes [3]; clade IA1, strain 7) was 1 µg/mL and 0.673 µM. For the same molecule, the MBC (Propionibacterium acnes [3]; clade IA1, strain 15) was 1 µg/mL and 0.673 µM, the MBC (Propionibacterium acnes [3]; clade IA1, strain 27) was 1 µg/mL and 0.673 µM and the MBC (Propionibacterium acnes [3]; clade IA2, strain 10) was 1 µg/mL and 0.673 µM. The MBC (Propionibacterium acnes [3]; clade IA2, strain 14) was 1 µg/mL and 0.673 µM, the MBC (Propionibacterium acnes [3]; clade IA2, strain 17) was 0.5 µg/mL and 0.337 µM and the MBC (Propionibacterium acnes [3]; clade IA2, strain 31) was 0.5 µg/mL and 0.337 µM. The MBC (Propionibacterium acnes [3]; clade IA2, strain 33A) was 1 µg/mL and 0.673 µM, the MBC (Propionibacterium acnes [3]; clade IB, strain 13) was 1 µg/mL and 0.673 µM and the MBC (Propionibacterium acnes [3]; clade II, strain 34A) was 0.5 µg/mL and 0.337 µM.

B1: PACL390: chimeric lysin, amino acid sequence SEQ ID NO: 258 (protein)
chain: MTFIQAAHHSSGSNLPPTRVVIHATCPEMGFPKASAKGRAVSTARYFQSASSGGSAHYVVDIGETVQCLGENVIAWHAPPNAHSLGIEICADGGSATSFSNPKVRYTRAQWLSPQVWPAVLRAAALTRKMCSKYGIPVVKLSASDLKAGKKGICGHVDVSNAFHQSDHDDPGPDFPWAEFMAAVKGGPGQQDTKPSVPTPSLTEIGDQDMNGCYYNLNSKTRTYLIFDSRSGFYHEFSQGNGNGPMSPDYVNPIAKGWDTGSWPAISPGHAKVLKAALDKVRKGI
modifications: PACL390
In the case of B1, the “MIC of selected lyases relative to Propionibacterium acnes” value (Propionibacterium acnes [1]; clade IA1, strain 1) is reported as 8 µg/mL, the “MIC of selected lyases relative to Propionibacterium acnes” value (Propionibacterium acnes [1]; clade IA1, strain 5) is reported as 8 µg/mL and the “MIC of selected lyases relative to Propionibacterium acnes” value (Propionibacterium acnes [1]; clade IA1, strain 7) is reported as 8 µg/mL. The “MIC of selected lyases relative to Propionibacterium acnes” value (Propionibacterium acnes [1]; clade IA2, strain 10) was 8 µg/mL, the “MIC of selected lyases relative to Propionibacterium acnes” value (Propionibacterium acnes [1]; clade IA2, strain 17) was 8 µg/mL and the “MIC of selected lyases relative to Propionibacterium acnes” value (Propionibacterium acnes [1]; clade IA2, strain 33) was 8 µg/mL. The “MIC of selected lyases relative to Propionibacterium acnes” value (Propionibacterium acnes [1]; clade II, strain 34) was 8 µg/mL.

B2: PACL392: chimeric lysin, amino acid sequence SEQ ID NO: 260 (protein)
chain: MTFIQAAHHSSGSNLPPTRVVIHATCPELGFPRASAKGRAVSTARYFQSAISGGSAHYVVDVGETVQCLAEDVIAWHAPPNSRSLGIEICADGGSATSFKNPNVRYSRAQWLSPQVWPAVLRAAALTRQMCQKYGIPVTKLSASDLKAGKKGICGHVDVSNAWHQSDHDDPGPDFPWAEFMAAVKGGATNPGGPGQQDTKPSVPTPSLTEIGDQDMNGCYYNLNSKTRTYLIFDSRSGFYHEFSQGNGNGPMSPDYVNPIAKGWDTGSWPAISPGHAKVLKAALDKVRKGI
modifications: PACL392
In the case of B2, the “MIC of selected lyases relative to Propionibacterium acnes” value (Propionibacterium acnes [1]; clade IA1, strain 1) is reported as 8 µg/mL, the “MIC of selected lyases relative to Propionibacterium acnes” value (Propionibacterium acnes [1]; clade IA1, strain 5) is reported as 8 µg/mL and the “MIC of selected lyases relative to Propionibacterium acnes” value (Propionibacterium acnes [1]; clade IA1, strain 7) is reported as 8 µg/mL. The “MIC of selected lyases relative to Propionibacterium acnes” value (Propionibacterium acnes [1]; clade IA2, strain 10) was 16 µg/mL, the “MIC of selected lyases relative to Propionibacterium acnes” value (Propionibacterium acnes [1]; clade IA2, strain 17) was 16 µg/mL and the “MIC of selected lyases relative to Propionibacterium acnes” value (Propionibacterium acnes [1]; clade IA2, strain 33) was 8 µg/mL. The “MIC of selected lyases relative to Propionibacterium acnes” value (Propionibacterium acnes [1]; clade II, strain 34) was 8 µg/mL.

B3: PACL404: chimeric lysin, amino acid sequence SEQ ID NO: 272 (protein)
chain: MTFIQAAHHSSGSNLPPTRVVIHATCPEMGFPKASAKGRAVSTARYFQSASSGGSAHYVVDIGETVQCLGENVIAWHAPPNAHSLGIEICADGGSATSFSNPKVRYTRAQWLSPQVWPAVLRAAALTRKMCSKYGIPVVKLSASDLKAGKKGICGHVDVSNAFHQSDHDDPGPDFPWAEFMAAVKGGTTTQEDEDEMKEAGGPGQQDTKPSVPTPSLTEIGDQDMNGCYYNLNSKTRTYLIFDSRSGFYHEFSQGNGNGPMSPDYVNPIAKGWDTGSWPAISPGHAKVLKAALDKVRKGI
modifications: PACL404
B3 was tested, and the “MIC of selected lyases relative to Propionibacterium acnes” value (Propionibacterium acnes [1]; clade IA1, strain 1) was 8 µg/mL, the “MIC of selected lyases relative to Propionibacterium acnes” value (Propionibacterium acnes [1]; clade IA1, strain 5) was 16 µg/mL and the “MIC of selected lyases relative to Propionibacterium acnes” value (Propionibacterium acnes [1]; clade IA1, strain 7) was 16 µg/mL. For the same molecule, the “MIC of selected lyases relative to Propionibacterium acnes” value (Propionibacterium acnes [1]; clade IA2, strain 10) was 16 µg/mL, the “MIC of selected lyases relative to Propionibacterium acnes” value (Propionibacterium acnes [1]; clade IA2, strain 17) was 8 µg/mL and the “MIC of selected lyases relative to Propionibacterium acnes” value (Propionibacterium acnes [1]; clade IA2, strain 33) was 8 µg/mL. For the same molecule, the “MIC of selected lyases relative to Propionibacterium acnes” value (Propionibacterium acnes [1]; clade II, strain 34) was 8 µg/mL.

B4: PACL391: chimeric lysin, amino acid sequence SEQ ID NO: 259 (protein)
chain: MTFIQAAHHSSGSNLPPTRVVIHATCPELGFPRASAKGRAVSTARYFQSAISGGSAHYVVDVGETVQCLAEDVIAWHAPPNSRSLGIEICADGGSATSFKNPNVRYSRAQWLSPQVWPAVLRAAALTRQMCQKYGIPVTKLSASDLKAGKKGICGHVDVSNAWHQSDHDDPGPDFPWAEFMAAVKGGATNPGGEVRTPGQQDTKPSVPTPSLTEIGDQDMNGCYYNLNSKTRTYLIFDSRSGFYHEFSQGNGNGPMSPDYVNPIAKGWDTGSWPAISPGHAKVLKAALDKVRKGI
modifications: PACL391
In the case of B4, the “MIC of selected lyases relative to Propionibacterium acnes” value (Propionibacterium acnes [1]; clade IA1, strain 1) is reported as 8 µg/mL, the “MIC of selected lyases relative to Propionibacterium acnes” value (Propionibacterium acnes [1]; clade IA1, strain 5) is reported as 16 µg/mL and the “MIC of selected lyases relative to Propionibacterium acnes” value (Propionibacterium acnes [1]; clade IA1, strain 7) is reported as 8 µg/mL. The “MIC of selected lyases relative to Propionibacterium acnes” value (Propionibacterium acnes [1]; clade IA2, strain 10) was 32 µg/mL, the “MIC of selected lyases relative to Propionibacterium acnes” value (Propionibacterium acnes [1]; clade IA2, strain 17) was 32 µg/mL and the “MIC of selected lyases relative to Propionibacterium acnes” value (Propionibacterium acnes [1]; clade IA2, strain 33) was 16 µg/mL. For the same molecule, the “MIC of selected lyases relative to Propionibacterium acnes” value (Propionibacterium acnes [1]; clade II, strain 34) was 8 µg/mL.

Reference: patent US20250288652A1, “BACTERIOPHAGE LYSINE, CHIMERA THEREOF AND APPLICATION THEREOF” (priority 2021, published 2025)
